The subject of series [1] is Wistar female rats. Briefly: Blood packed cell volume, hemoglobin, organ weights and histology. The format is in vivo, rat. The method, then:
(§1) The animals were divided into groups of three rats at random. A control group receiving the vehicle and four groups receiving PPD at several concentrations 10, 20, 40, and 60 mg/kg at single dose were included (Figure 1). The compound was administered in a volume of 300 μl of 100% DMSO by gavage. Animals were evaluated based on general appearance, behavior and signs of morbidity using the Irwin test (Castagné et al., [2012]), immediately following administration, 30 min, 1, 2, 4, and 8 h after the administration (Figure 1). All of the animals were weighed just before the acclimatization period, before administration and 24, 48, and 72 h after administration. At the end of the observation period (24, 48, and 72 h after administration), all the animals were anesthetized and blood samples were collected from tail and retro orbital sinus and centrifuged at 2000 × g for 30 min at 4°C to recover the serum (Figure 1). The serum was frozen and stored at −20°C until determination of biochemical parameters such as urea, creatinin, Glucose, aspartate aminotransferase (AST), alanine aminotransferase (ALT) and creatine kinase (CK), lactate dehydrogenase (LDH), at 24, 48, and 72 h before sacrificed in a CO2 chamber and autopsied. All of the tissues were observed grossly. Ovaries, kidneys, liver, spleen, heart, and lung were weighed and the relative organ weights were calculated. Serum CK and LDH levels were measured.

For series [2], the system named is central carbon metabolic pathways of C2C12 cells. Nature of the series: Mass isotopomer distribution analysis (MIDA) with [1,2-13C2]-glucose, GC/MS. The series is classed as cell-based, Mus musculus mouse. As to the method: To track and measure the substrate carbon flux through central carbon metabolic pathways of C2C12 cells when treated with PPD, mass isotopomer distribution analysis (MIDA), and metabolic modeling approaches were used.
Cells were cultured in DMEM (Biowithaker) °supplemented with 10% dialyzed heat-inactivated Fetal Bovine Serum (FBS), glucose (10 mM, 50% isotope enrichment [1,2-^13C2]-glucose), asparagine (20 mg/ml), penicillin (100 U/ml), and streptomycin (100 μg/ml). […] Initially each flask contained 10^6 cells and the incubation was carried out for 24 h. To separate medium and cell pellets, cells were centrifuged at the end of incubation (3000 × g, 5 min). Afterwards, pellet and medium were stored at −20°C for metabolite isolations.
• Glucose. A mixed DOWEX 50-DOWEX 1 ionic exchange column was used to corroborate that the original medium contained 50% of labeled glucose ([1,2-^13C2] D-glucose). First, 500 μl of medium and after 6 ml of milliQ water were passed through the column and were collected into a glass tube. Next, it was lyophilized for 12 h to eliminate the remaining liquid and the dried sample was stored. Finally, hydroxyl-amine in pyridine and acetic anhydride were used to derivatize glucose to its aldonitrile form. The ion cluster was set to m/z 328 (C1–C6, chemical ionization; Wamelink et al., [2008]). • Glycogen. Glycogen for biochemical and isotopomerics distribution determination was extracted as described in Burchert ([2007]), by direct digestion of sonicated extracts with amyloglucosidase. Measurement of glucose released from glycogen was done by using the isotopomer [U-13C6-1,2,3,4,5,6,6-D7]D-glucose (or [U-13C-D7]-glucose as shorter name) as recovery standard and internal standard quantification procedures. […] We monitored the ion cluster around the m/z 328 (C1–C6, chemical ionization; Wamelink et al., [2008]). • Lactate. […] Next, the m/z 328 was monitored (C1–C3, chemical ionization, Wamelink et al., [2008]). • Ribose from RNA. […]

The test system of series [3] is Wistar female rats. Briefly: Serum biochemical parameters (AST, ALT, CK, LDH). The series is classed as in vivo, rat. As to conditions: 40 and 60 mg/kg. As to the method:
as §1

The next series concerns C2C12 cells. Briefly: Cell viability assay (MTT). The format is cell-based, Mus musculus mouse. The following applies: for IC50: read-out: IC50 (cell proliferation, MTT); for IC80: read-out: IC80 (cell proliferation, MTT). The method, then:
C2C12 cells from Mus musculus mouse were cultured in DMEM (Dulbecco's Modified Eagle's medium) with 10 mg/ml of streptomycin, 2 mM glutamine, 10,000 units/ml of penicillin and 10% heat-inactivated FCS, until subconfluence was reached. For biochemical characterization, C2C12 cells were cultured in DMEM, supplemented with 4 mM asparagine without glutamine, 10 mg/ml of streptomycin, 10,000 units/ml of penicillin and 10% heat-inactivated FCS.
The absorbance of MTT [3-(4,5-Dimethylthiazol-2-Yl)-2,5-Diphenyltetrazolium Bromide] dye staining of living cells was used to determine cell viability (Pachon et al., [2007]; Pachón et al., [2008]). Here, 3.5 × 10^3 C2C12 cells/well were cultured in 96 well-plates at different PPD concentrations (from 1 to 100 μg/ml). An ELISA plate reader (Tecan Sunrise MR20-301, TECAN, Austria) was used to determine the relative cell viability, the absorbance was determined at 550 nm. Cell survival rate relative to untreated cells after 24 h of treatment was used to estimate the concentrations that caused 50% (IC50) and 80% (IC80) of inhibition of C2C12 at that time.

Each structure is given as a SMILES string. Where “and” joins values, the source holds several entries; their conditions need not be identical. Equal entries are not always repeated. Where two headings read alike, the source gives them in different places.

For `Nc1ccc(N)cc1` [PPD, p-phenylenediamine], the organs weight result with Wistar female rats [1] (48 and 72 h, any condition) is on record as “No significant differences”. Moreover, in the series with Wistar female rats [1] (any condition (10-60 mg/kg)), the “Blood packed cell volume” value was “No significant differences” and the hemoglobin levels result is listed as “No significant differences”. For the same compound, the “Histological analysis of extracted organs” value in the series on Wistar female rats [1] (vs controls) was “patterns similar to controls”. In addition, in series [2] (24 h, no significant differences between groups), the total glycogen reservoirs is 10,1 μg. Also, the “Glycolitic rate = [Δlactate × m2lactate]/[Δglucose × m2glucose]” value in series [2] (PPD at IC50, 24 h, not significantly different from control) was 28,8 ± 14%. Besides, the “ox/non-ox ratio of pentose-phosphate pathway = m1 + m3 / (m2 + m3 + 2m4)” value in series [2] (RNA ribose, PPD at IC50, 24 h) is 2,224 ± 0,189 and 2.224 ± 0.189. For the same compound, in the series with Wistar female rats [3] (24, 48 and 72 h), the ALT in serum entry is recorded as “increased” and the AST in serum result is on record as “increased”. For the same compound, in the series with Wistar female rats [3] (24 h), the CK in serum entry is reported as “increased” and the LDH in serum entry was “increased”. In the series on C2C12 cells (C2C12, 24 h), the IC50 stood at 154 µM and the IC80 stood at 201 ± 8 µM. Besides, in the series on C2C12 cells (C2C12, 48 h), the IC50 was 108 ± 8 µM and the IC80 was found to be 182 ± 12 µM. For the same compound, in the series with C2C12 cells (C2C12, 72 h), the IC50 turned out to be 59 ± 1 µM and the IC80 worked out at 91 ± 7 µM.

The values above are taken from paper PMC5338303, “Unveiling the Metabolic Changes on Muscle Cell Metabolism Underlying p-Phenylenediamine Toxicity” (Frontiers in Molecular Biosciences, 2017).
